Test results published in patent publication US12202823B2 (QUIMATRYX, S.L., priority 2019, dated 2025).
Where two headings read alike, the source gives them in different places.

Key:
hHDAC8 = hHDAC8 (Homo sapiens (Human), UniProt Q9BY41); test: hHDAC8 inhibition protocol; conditions: read-out: IC50 (nM) of enzyme activity HDAC8; selectivity table
Experimental: (§1) After enzymatic reactions, reaction was stopped by adding 5 μl of 10 μM solution of a known inhibitor. The fluorescent signal of substrate and product was measured by means of microfluidics mobility assay in a EZ Reader II equipment. The percentage of conversion of substrate into product was calculated by the equipment software based on the area of the peaks.
(§2) The percentage of conversion data were analyzed using the computer software, Graphpad Prism. In the absence of the compound, the conversion (Ct) in each data set was defined as 100% activity. In the absence of HDAC, the conversion (Cb) in each data set was defined as 0% activity. The percent activity in the presence of each compound was calculated according to the following equation: % inhibition=(Ct−C)/(Ct−Cb), where C=the percentage of conversion in the presence of the compound.
(§3) The values of % inhibition versus a series of compound concentrations were then plotted using non-linear regression analysis of Sigmoidal dose-response curve generated with the equation Y=B+(T−B)/1+10((Log EC50−X)×Hill Slope), where Y=percent inhibition, B=minimum percent inhibition, T=maximum percent inhibition, X=logarithm of compound and Hill Slope=slope factor or Hill coefficient. The IC50 value was determined by the concentration causing a half-maximal percent activity.
The buffer assay used in the inhibition hHDAC8 assay is: Hepes 50 mM, KCl 100 mM, Tween 20 0.001%, BSA 0.01%; pH=7.4.

hHDAC5 = hHDAC5 (Homo sapiens (Human), UniProt Q9UQL6); test: hHDAC5 inhibition protocol; conditions: read-out: IC50 (nM) of enzyme activity HDAC5; selectivity table
Experimental: as §1, §2, §3
The buffer assay used in the inhibition hHDAC5 assay is: Hepes 50 mM, KCl 100 mM, Tween 20 0.001%, BSA 0.01%; pH=7.4.

hHDAC9 = hHDAC9 (Homo sapiens (Human), UniProt Q9UKV0); test: hHDAC9 inhibition protocol; conditions: read-out: IC50 (nM) of enzyme activity HDAC9; selectivity table
Experimental: as §1, §2, §3
The buffer assay used in the inhibition hHDAC9 assay is: Hepes 50 mM, KCl 100 mM, Tween 20 0.001%, BSA 0.01%; pH=7.4.

hHDAC7 = hHDAC7 (Homo sapiens (Human), UniProt Q8WUI4); test: hHDAC7 inhibition protocol; conditions: read-out: IC50 (nM) of enzyme activity HDAC7; selectivity table
Experimental: The fluorescent signal of substrate and product was measured by means of microfluidics mobility assay in a EZ Reader II equipment. The percentage of conversion of substrate into product was calculated by the equipment software based on the area of the peaks.
as §2, §3
The buffer assay used in the inhibition hHDAC7 assay is: Hepes 50 mM, KCl 100 mM, Tween 20 0.001%, BSA 0.01%; pH=7.4.

hHDAC2 = hHDAC2 (Homo sapiens (Human), UniProt Q92769); test: hHDAC2 inhibition protocol; conditions: read-out: IC50 (nM) of enzyme activity HDAC2; selectivity table
Experimental: as §1, §2, §3
The buffer assay used in the inhibition hHDAC2 assay is: Hepes 50 mM, KCl 100 mM, Tween 20 0.001%, BSA 0.01%; pH=7.4.

hHDAC4 = hHDAC4 (Homo sapiens (Human), UniProt P56524); test: hHDAC4 inhibition protocol; conditions: read-out: IC50 (nM) of enzyme activity HDAC4; selectivity table
Experimental: as §1, §2, §3
The buffer assay used in the inhibition hHDAC4 assay is: Hepes 50 mM, KCl 100 mM, Tween 20 0.001%, BSA 0.01%; pH=7.4.

hHDAC10 = hHDAC10 (Homo sapiens (Human), UniProt Q969S8); test: HDAC10 inhibition protocol; conditions: read-out: IC50 (nM) of enzyme activity HDAC10; selectivity table
Experimental: as §1, §2, §3
The buffer assay used in the inhibition hHDAC10 assay is: Hepes 50 mM, KCl 100 mM, Tween 20 0.001%, BSA 0.01%; pH=7.4.

hHDAC6 = hHDAC6 (Homo sapiens (Human), UniProt Q9UBN7); test: HDAC6 inhibition protocol; conditions: read-out: IC50 (nM) of enzyme activity HDAC6
Experimental: as §1, §2, §3
The buffer assay used in the inhibition hHDAC6 assay is: Hepes 50 mM, KCl 100 mM, Tween 20 0.001%, BSA 0.01%; pH=7.4.

hHDAC3 = hHDAC3 (Homo sapiens (Human), UniProt O15379); test: hHDAC3 inhibition protocol; conditions: read-out: IC50 (nM) of enzyme activity HDAC3; selectivity table
Experimental: as §1, §2, §3
The buffer assay used in the inhibition hHDAC3 assay is: Hepes 50 mM, KCl 100 mM, Tween 20 0.001%, BSA 0.01%; pH=7.4.

hHDAC1 = hHDAC1 (Homo sapiens (Human), UniProt Q13547); test: hHDAC1 inhibition protocol; conditions: read-out: IC50 (nM) of enzyme activity HDAC1; selectivity table
Experimental: as §1, §2, §3
The buffer assay used in the inhibition hHDAC1 assay is: Hepes 50 mM, KCl 100 mM, Tween 20 0.001%, BSA 0.01%; pH=7.4.

[1] = hHDAC6 1.20 nM, Acetylated Peptide A 2 μM, 1 hour at RT

Sequence of hHDAC4 (P56524 whole entry): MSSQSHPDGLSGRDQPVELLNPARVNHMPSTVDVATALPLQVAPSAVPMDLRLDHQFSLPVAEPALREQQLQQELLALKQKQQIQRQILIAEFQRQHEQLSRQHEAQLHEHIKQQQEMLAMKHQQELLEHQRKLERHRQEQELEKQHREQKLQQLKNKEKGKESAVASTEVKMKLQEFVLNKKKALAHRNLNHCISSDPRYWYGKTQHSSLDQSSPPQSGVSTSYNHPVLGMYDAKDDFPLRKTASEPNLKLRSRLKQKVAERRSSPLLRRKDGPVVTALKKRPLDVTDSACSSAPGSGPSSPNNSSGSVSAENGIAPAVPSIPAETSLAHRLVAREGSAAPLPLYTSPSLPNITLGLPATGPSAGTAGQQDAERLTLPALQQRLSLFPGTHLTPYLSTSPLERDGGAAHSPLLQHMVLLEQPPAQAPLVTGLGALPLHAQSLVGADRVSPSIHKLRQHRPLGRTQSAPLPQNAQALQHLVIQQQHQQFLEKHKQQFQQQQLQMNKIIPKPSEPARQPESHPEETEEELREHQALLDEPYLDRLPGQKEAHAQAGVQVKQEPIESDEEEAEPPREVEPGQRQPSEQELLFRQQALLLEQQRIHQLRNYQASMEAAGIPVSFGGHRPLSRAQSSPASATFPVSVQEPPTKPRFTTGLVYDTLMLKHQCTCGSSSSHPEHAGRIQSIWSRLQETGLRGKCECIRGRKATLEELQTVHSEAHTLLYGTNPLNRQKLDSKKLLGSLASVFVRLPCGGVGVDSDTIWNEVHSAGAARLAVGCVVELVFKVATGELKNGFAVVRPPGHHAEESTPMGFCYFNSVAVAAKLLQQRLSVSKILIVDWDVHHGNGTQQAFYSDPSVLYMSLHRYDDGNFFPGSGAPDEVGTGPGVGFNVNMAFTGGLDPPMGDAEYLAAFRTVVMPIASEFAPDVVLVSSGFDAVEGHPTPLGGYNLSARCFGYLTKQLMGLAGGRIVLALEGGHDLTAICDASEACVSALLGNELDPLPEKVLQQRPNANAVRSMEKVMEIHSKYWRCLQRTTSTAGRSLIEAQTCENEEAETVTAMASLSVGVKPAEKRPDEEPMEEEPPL
Sequence of hHDAC3 (O15379 whole entry): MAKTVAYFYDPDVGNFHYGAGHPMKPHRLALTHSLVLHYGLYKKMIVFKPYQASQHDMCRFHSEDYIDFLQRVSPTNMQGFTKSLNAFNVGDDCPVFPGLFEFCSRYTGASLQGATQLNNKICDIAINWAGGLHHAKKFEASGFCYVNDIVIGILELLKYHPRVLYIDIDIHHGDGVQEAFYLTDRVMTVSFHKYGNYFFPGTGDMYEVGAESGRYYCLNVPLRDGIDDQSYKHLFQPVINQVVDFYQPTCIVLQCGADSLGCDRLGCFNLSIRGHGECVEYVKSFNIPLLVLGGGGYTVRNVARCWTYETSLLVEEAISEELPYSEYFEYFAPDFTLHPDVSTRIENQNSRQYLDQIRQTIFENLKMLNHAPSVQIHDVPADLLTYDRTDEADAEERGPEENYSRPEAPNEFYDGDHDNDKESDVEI
Sequence of hHDAC3 (Q9Y618 395-489 partner): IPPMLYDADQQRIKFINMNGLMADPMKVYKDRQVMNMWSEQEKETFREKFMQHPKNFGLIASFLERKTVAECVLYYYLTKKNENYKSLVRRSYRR
Sequence of hHDAC1 (Q13547 whole entry): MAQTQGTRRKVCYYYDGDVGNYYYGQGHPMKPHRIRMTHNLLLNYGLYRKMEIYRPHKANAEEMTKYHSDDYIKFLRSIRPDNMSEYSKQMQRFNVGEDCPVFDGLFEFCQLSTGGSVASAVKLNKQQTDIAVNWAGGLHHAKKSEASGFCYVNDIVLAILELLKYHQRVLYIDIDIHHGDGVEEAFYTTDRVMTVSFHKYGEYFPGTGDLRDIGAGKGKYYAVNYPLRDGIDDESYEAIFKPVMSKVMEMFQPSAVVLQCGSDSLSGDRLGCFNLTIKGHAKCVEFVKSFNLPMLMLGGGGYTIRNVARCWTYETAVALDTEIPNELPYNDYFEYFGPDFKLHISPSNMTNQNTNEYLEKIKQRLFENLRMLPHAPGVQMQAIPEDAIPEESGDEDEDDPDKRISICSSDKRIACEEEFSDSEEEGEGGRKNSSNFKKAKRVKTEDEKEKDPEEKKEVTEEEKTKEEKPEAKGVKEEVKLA
Sequence of hHDAC8 (Q9BY41 whole entry): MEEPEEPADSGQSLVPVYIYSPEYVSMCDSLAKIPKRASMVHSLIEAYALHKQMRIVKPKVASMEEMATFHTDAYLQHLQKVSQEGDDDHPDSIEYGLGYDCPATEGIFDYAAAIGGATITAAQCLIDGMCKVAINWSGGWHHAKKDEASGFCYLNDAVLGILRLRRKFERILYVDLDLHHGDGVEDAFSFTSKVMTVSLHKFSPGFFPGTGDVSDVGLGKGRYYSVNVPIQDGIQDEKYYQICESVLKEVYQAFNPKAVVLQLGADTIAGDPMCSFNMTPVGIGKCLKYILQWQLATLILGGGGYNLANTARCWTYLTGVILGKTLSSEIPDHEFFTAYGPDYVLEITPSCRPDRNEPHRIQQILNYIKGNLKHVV
Sequence of hHDAC9 (Q9UKV0 whole entry): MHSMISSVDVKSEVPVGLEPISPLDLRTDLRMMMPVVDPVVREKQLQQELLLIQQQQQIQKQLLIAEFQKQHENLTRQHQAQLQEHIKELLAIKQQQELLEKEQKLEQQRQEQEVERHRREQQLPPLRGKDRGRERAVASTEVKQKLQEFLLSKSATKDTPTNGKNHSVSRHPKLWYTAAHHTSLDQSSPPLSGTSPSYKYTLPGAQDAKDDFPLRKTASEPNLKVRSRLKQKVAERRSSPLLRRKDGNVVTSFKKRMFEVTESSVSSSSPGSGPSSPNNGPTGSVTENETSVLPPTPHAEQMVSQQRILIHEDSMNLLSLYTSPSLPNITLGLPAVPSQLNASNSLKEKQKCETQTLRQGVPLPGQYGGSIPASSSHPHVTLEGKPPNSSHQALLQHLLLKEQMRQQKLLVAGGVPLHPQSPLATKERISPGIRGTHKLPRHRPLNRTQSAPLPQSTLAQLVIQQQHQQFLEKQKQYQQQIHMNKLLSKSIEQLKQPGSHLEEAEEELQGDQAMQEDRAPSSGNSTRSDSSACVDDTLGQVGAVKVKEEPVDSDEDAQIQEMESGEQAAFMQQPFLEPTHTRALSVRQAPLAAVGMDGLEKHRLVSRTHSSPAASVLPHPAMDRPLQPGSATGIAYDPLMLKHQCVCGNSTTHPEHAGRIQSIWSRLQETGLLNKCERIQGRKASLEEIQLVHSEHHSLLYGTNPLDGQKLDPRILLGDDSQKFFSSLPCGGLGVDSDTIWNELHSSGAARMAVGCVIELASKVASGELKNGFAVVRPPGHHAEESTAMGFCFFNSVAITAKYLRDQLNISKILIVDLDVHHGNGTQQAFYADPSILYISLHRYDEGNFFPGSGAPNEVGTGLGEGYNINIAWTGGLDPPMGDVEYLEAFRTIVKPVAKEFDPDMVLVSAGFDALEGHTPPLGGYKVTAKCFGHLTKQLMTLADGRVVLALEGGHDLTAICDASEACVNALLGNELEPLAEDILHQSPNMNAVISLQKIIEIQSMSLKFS
Sequence of hHDAC10 (Q969S8 whole entry): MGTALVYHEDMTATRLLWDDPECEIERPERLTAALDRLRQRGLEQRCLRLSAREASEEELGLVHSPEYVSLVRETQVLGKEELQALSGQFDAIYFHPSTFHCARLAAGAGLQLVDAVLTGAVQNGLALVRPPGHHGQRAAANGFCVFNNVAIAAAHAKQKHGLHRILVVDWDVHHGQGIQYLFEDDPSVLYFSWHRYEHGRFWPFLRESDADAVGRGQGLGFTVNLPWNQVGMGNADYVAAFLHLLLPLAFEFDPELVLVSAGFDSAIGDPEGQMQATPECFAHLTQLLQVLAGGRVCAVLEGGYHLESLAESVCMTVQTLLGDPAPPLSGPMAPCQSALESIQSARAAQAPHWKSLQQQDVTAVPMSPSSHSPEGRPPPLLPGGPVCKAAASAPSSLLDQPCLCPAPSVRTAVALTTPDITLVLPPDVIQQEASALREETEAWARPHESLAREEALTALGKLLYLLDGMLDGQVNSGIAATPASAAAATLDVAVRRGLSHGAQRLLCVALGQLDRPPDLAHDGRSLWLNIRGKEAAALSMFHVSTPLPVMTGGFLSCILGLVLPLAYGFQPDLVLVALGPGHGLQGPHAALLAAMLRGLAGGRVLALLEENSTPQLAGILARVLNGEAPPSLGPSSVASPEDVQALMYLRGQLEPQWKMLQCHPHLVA
Sequence of hHDAC2 (Q92769 whole entry): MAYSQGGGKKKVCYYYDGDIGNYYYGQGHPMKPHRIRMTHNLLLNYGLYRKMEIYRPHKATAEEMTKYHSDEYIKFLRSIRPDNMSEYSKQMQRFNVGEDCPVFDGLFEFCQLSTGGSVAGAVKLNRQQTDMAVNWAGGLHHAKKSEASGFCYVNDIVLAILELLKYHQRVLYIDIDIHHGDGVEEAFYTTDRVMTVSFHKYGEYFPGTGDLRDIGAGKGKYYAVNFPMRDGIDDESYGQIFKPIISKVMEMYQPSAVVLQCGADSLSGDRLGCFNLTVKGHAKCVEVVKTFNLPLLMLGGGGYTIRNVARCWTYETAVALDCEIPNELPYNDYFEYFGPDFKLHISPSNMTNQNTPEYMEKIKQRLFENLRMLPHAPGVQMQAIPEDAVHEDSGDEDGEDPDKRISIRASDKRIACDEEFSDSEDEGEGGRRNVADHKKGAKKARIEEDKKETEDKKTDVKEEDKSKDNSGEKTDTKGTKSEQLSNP

IC50 (hHDAC8)	IC50 (hHDAC5)	IC50 (hHDAC9)	IC50 (hHDAC7)	IC50 (hHDAC2)	IC50 (hHDAC4)	IC50 (hHDAC10)	IC50 (hHDAC6; [1])	IC50 (hHDAC6; selectivity table)	IC50 (hHDAC3)	IC50 (hHDAC1)	Compound
> 10000 nM	> 10000 nM	6520 nM	9400 nM	> 10000 nM	2400 nM	> 10000 nM	22.4 nM	22.4 nM	> 10000 nM	> 10000 nM	FC(F)c1nnc(-c2ccc(Cn3cnc4cc(Cl)c(Cl)cc43)nc2)o1 [Example 22, 2-(6-((5,6-dichloro-1H-benzo[d]imidazol-1-yl)methyl)pyridin-3-yl)-5-(difluoromethyl)-1,3,4-oxadiazole]
> 10000 nM	> 10000 nM	> 10000 nM	> 10000 nM	> 10000 nM	> 10000 nM	> 10000 nM	29.8 nM	29.8 nM	> 10000 nM	> 10000 nM	FC(F)c1nnc(-c2ccc(Cn3nc4cc(Cl)c(Cl)cc4n3)nc2)o1 [Example 25, 2-(6-((5,6-dichloro-2H-benzo[d][1,2,3]triazol-2-yl)methyl)pyridin-3-yl)-5-(difluoromethyl)-1,3,4-oxadiazole]
> 10000 nM	> 10000 nM	> 10000 nM	> 10000 nM	> 10000 nM	> 10000 nM	> 10000 nM	85.3 nM	85.3 nM	> 10000 nM	> 10000 nM	FC(F)c1nnc(-c2ccc(Cn3cc(-c4ccccc4)nn3)cc2)o1 [Example 27, 2-(difluoromethyl)-5-(4-((4-phenyl-1H-1,2,3-triazol-1-yl)methyl)phenyl)-1,3,4-oxadiazole]
> 10000 nM	> 10000 nM	8620 nM	> 10000 nM	> 10000 nM	8370 nM	> 10000 nM	29.5 nM	29.5 nM	> 10000 nM	> 10000 nM	FC(F)c1nnc(-c2ccc(Cn3nnc4cc(Cl)c(Cl)cc43)nc2)o1 [Example 24, 2-(6-((5,6-dichloro-1H-benzo[d][1,2,3]triazol-1-yl)methyl)pyridin-3-yl)-5-(difluoromethyl)-1,3,4-oxadiazole]
> 10000 nM	> 10000 nM	> 10000 nM	> 10000 nM	> 10000 nM	> 10000 nM	> 10000 nM	24 nM	24 nM	> 10000 nM	> 10000 nM	Fc1ccccc1-c1cn(Cc2ccc(-c3nnc(C(F)F)o3)cn2)nn1 [Example 48, 2-(difluoromethyl)-5-(6-((4-(2-fluorophenyl)-1H-1,2,3-triazol-1-yl)methyl)pyridin-3-yl)-1,3,4-oxadiazole]
> 10000 nM	> 10000 nM	2610 nM	1400 nM	> 10000 nM	1490 nM	> 10000 nM	34.1 nM	34.1 nM	> 10000 nM	> 10000 nM	FC(F)c1nnc(-c2ccc(Cn3nnc(-c4cccc(Cl)c4)c3Cl)nc2)o1 [Example 54, 2-(6-((5-chloro-4-(3-chlorophenyl)-1H-1,2,3-triazol-1-yl)methyl)pyridin-3-yl)-5-(difluoromethyl)-1,3,4-oxadiazole]
> 10000 nM	> 10000 nM	> 10000 nM	> 10000 nM	> 10000 nM	> 10000 nM	> 10000 nM	365 nM	365 nM	> 10000 nM	> 10000 nM	FC(F)c1nnc(-c2ccc(Cn3cc4ccccc4n3)cc2)o1 [Example 7, 2-(4-((2H-indazol-2-yl)methyl)phenyl)-5-(difluoromethyl)-1,3,4-oxadiazole]
–	–	–	–	–	–	–	190 nM	–	–	–	FC(F)c1nnc(-c2ccc(Cn3nnc4cccnc43)nc2)o1 [Example 23, 2-(6-((3H-[1,2,3]triazolo[4,5-b]pyridin-3-yl)methyl)pyridin-3-yl)-5-(difluoromethyl)-1,3,4-oxadiazole]
–	–	–	–	–	–	–	25.7 nM	–	–	–	FC(F)c1nnc(-c2ccc(Cn3cc(-c4cc(Cl)cc(Cl)c4)nn3)nc2)o1 [Example 47, 2-(6-((4-(3,5-dichlorophenyl)-1H-1,2,3-triazol-1-yl)methyl)pyridin-3-yl)-5-(difluoromethyl)-1,3,4-oxadiazole]
–	–	–	–	–	–	–	273 nM	–	–	–	CC(C)(C)c1cn(Cc2ccc(-c3nnc(C(F)F)o3)cc2)nn1 [Example 31, 2-(4-((4-(tert-butyl)-1H-1,2,3-triazol-1-yl)methyl)phenyl)-5-(difluoromethyl)-1,3,4-oxadiazole]
–	–	–	–	–	–	–	238 nM	–	–	–	FC(F)c1nnc(-c2ccc(Cn3cc(-c4ccc(C(F)(F)F)cc4)nn3)cc2)o1 [Example 30, 2-(difluoromethyl)-5-(4-((4-(4-(trifluoromethyl)phenyl)-1H-1,2,3-triazol-1-yl)methyl)phenyl)-1,3,4-oxadiazole]
–	–	–	–	–	–	–	131 nM	–	–	–	FC(F)c1nnc(-c2ccc(Cn3cc(-c4ccsc4)nn3)cc2)o1 [Example 35, 2-(difluoromethyl)-5-(4-((4-(thiophen-3-yl)-1H-1,2,3-triazol-1-yl)methyl)phenyl)-1,3,4-oxadiazole]
–	–	–	–	–	–	–	2800 nM	–	–	–	COC(=O)c1cn(Cc2ccc(-c3nnc(C(F)F)o3)cc2)nn1 [Example 28, methyl 1-(4-(5-(difluoromethyl)-1,3,4-oxadiazol-2-yl)benzyl)-1H-1,2,3-triazole-4-carboxylate]
–	–	–	–	–	–	–	258 nM	–	–	–	O=C1c2ccccc2C(=O)N1Cc1ccc(-c2nnc(C(F)F)o2)cc1 [Example 16, 2-(4-(5-(difluoromethyl)-1,3,4-oxadiazol-2-yl)benzyl)isoindoline-1,3-dione]
–	–	–	–	–	–	–	188 nM	–	–	–	FC(F)c1nnc(-c2ccc(Cn3cc(-c4ccncc4)nn3)cc2)o1 [Example 33, 2-(difluoromethyl)-5-(4-((4-(pyridin-4-yl)-1H-1,2,3-triazol-1-yl)methyl)phenyl)-1,3,4-oxadiazole]
–	–	–	–	–	–	–	1760 nM	–	–	–	FC(F)c1nnc(-c2ccc(Cn3ccc4cccnc43)cc2)o1 [Example 4, 2-(4-((1H-pyrrolo[2,3-b]pyridin-1-yl)methyl)phenyl)-5-(difluoromethyl)-1,3,4-oxadiazole]
–	–	–	–	–	–	–	366 nM	–	–	–	Cc1c(-c2ccccc2)nnn1Cc1ccc(-c2nnc(C(F)F)o2)cc1 [Example 39, 2-(difluoromethyl)-5-(4-((5-methyl-4-phenyl-1H-1,2,3-triazol-1-yl)methyl)phenyl)-1,3,4-oxadiazole]
–	–	–	–	–	–	–	417 nM	–	–	–	FC(F)c1nnc(-c2ccc(Cn3ncc4ccccc43)cc2)o1 [Example 6, 2-(4-((1H-indazol-1-yl)methyl)phenyl)-5-(difluoromethyl)-1,3,4-oxadiazole]
–	–	–	–	–	–	–	85.1 nM	–	–	–	Cc1cc2nnn(Cc3ccc(-c4nnc(C(F)F)o4)cn3)c2cc1C [Example 59, 2-(difluoromethyl)-5-(6-((5,6-dimethyl-1H-benzo[d][1,2,3]triazol-1-yl)methyl)pyridin-3-yl)-1,3,4-oxadiazole]
–	–	–	–	–	–	–	43.1 nM	–	–	–	FC(F)c1nnc(-c2ccc(Cn3cc(-c4ccc(Cl)cc4)nn3)nc2)o1 [Example 43, 2-(6-((4-(4-chlorophenyl)-1H-1,2,3-triazol-1-yl)methyl)pyridin-3-yl)-5-(difluoromethyl)-1,3,4-oxadiazole]
–	–	–	–	–	–	–	33.5 nM	–	–	–	FC(F)c1nnc(-c2ccc(Cn3cc(-c4cccc(Cl)c4)nn3)nc2)o1 [Example 45, 2-(6-((4-(3-chlorophenyl)-1H-1,2,3-triazol-1-yl)methyl)pyridin-3-yl)-5-(difluoromethyl)-1,3,4-oxadiazole]
–	–	–	–	–	–	–	40.4 nM	–	–	–	FC(F)c1nnc(-c2ccc(Cn3nnc4ccc(Br)cc43)nc2)o1 [Example 65, 2-(6-((6-bromo-1H-benzo[d][1,2,3]triazol-1-yl)methyl)pyridin-3-yl)-5-(difluoromethyl)-1,3,4-oxadiazole]
–	–	–	–	–	–	–	229 nM	–	–	–	O=C1N(Cc2ccc(-c3nnc(C(F)F)o3)cc2)c2ccccc2C12CCOCC2 [Example 19]
> 10000 nM	> 10000 nM	> 10000 nM	> 10000 nM	> 10000 nM	> 10000 nM	> 10000 nM	171 nM	171 nM	> 10000 nM	> 10000 nM	FC(F)c1nnc(-c2ccc(Cn3nnc4ccccc43)cc2)o1 [Example 11, 2-(4-((1H-benzo[d][1,2,3]triazol-1-yl)methyl)phenyl)-5-(difluoromethyl)-1,3,4-oxadiazole]
–	–	–	–	–	–	–	236 nM	–	–	–	O=C(c1nc2cc(Cl)c(Cl)cc2n1Cc1ccc(-c2nnc(C(F)F)o2)cc1)C(F)F [Example 9, 1-(5,6-dichloro-1-(4-(5-(difluoromethyl)-1,3,4-oxadiazol-2-yl)benzyl)-1H-benzo[d]imidazol-2-yl)-2,2-difluoroethanone]

Compound	IC50 (hHDAC8)	IC50 (hHDAC5)	IC50 (hHDAC9)	IC50 (hHDAC7)	IC50 (hHDAC2)	IC50 (hHDAC4)	IC50 (hHDAC10)	IC50 (hHDAC6; [1])	IC50 (hHDAC6; selectivity table)	IC50 (hHDAC3)	IC50 (hHDAC1)
O=C(c1cn(Cc2ccc(-c3nnc(C(F)F)o3)cc2)c2ccccc12)C(F)F [Example 5, 1-(1-(4-(5-(difluoromethyl)-1,3,4-oxadiazol-2-yl)benzyl)-1H-indol-3-yl)-2,2-difluoroethanone]	–	–	–	–	–	–	–	239 nM	–	–	–
